Assay: xn = mol fraction of the nth substance listed

ClC=C(Cl)Cl + CCCCOCCOCCO
298.15 K, 101.33 kPa
Conditions	viscosity [mPa·s]
x1 = 0.0171	5.12
x2 = 0.0067	0.539
x2 = 0.0185	0.56
x2 = 0.0282	0.577
x2 = 0.0462	0.609
x2 = 0.0623	0.643
x2 = 0.0798	0.68
x2 = 0.0916	0.708
x2 = 0.1239	0.784
x2 = 0.1624	0.89
x2 = 0.2002	0.999
x2 = 0.231	1.097
x2 = 0.268	1.224
x2 = 0.2998	1.339
x2 = 0.3306	1.46
x2 = 0.3622	1.598
x2 = 0.4019	1.789
x2 = 0.4263	1.914
x2 = 0.4614	2.087
x2 = 0.5031	2.305
x2 = 0.54	2.492
x2 = 0.6007	2.81
x2 = 0.6745	3.232
x2 = 0.7406	3.618
x2 = 0.7898	3.928
x2 = 0.8221	4.116
x2 = 0.8567	4.332
x2 = 0.8875	4.525
x2 = 0.9174	4.722
x2 = 0.9489	4.919
x2 = 0.9678	5.031

CCCCC(=O)[O-].CC[NH+](CC)CCO + CCCCn1cc[n+](C)c1.COP(=O)([O-])OC
Conditions	viscosity [mPa·s]
298.15 K, 101 kPa, x1 = 0.1018	415.5

CCCCn1cc[n+](C)c1.COP(=O)([O-])OC + CCCCn1cc[n+](C)c1.O=S(=O)([N-]S(=O)(=O)C(F)(F)F)C(F)(F)F
Conditions	viscosity [mPa·s]
298.15 K, 100 kPa, x2 = 0.25	432.5

CC(O)CO (stereo unspecified) + CCCO
313 K, 101 kPa
Conditions	viscosity [mPa·s]
x1 = 0.1	1.9
x1 = 0.3	2.9
x1 = 0.5	4.8
x1 = 0.7	8.3
x1 = 0.9	15

ClC=C(Cl)Cl + CCCO
viscosity [mPa·s]
Conditions	x1 = 0.0848	x1 = 0.1725	x2 = 0.024	x2 = 0.1062	x2 = 0.253	x2 = 0.3927	x2 = 0.5454	x2 = 0.6998	x2 = 0.9543
298.15 K, 101.3 kPa	1.705	1.485	–	–	–	–	–	–	–
303.15 K, 101 kPa	–	–	0.598	0.692	0.86	1.019	1.193	1.37	1.537
313.15 K, 101 kPa	–	–	0.55	0.617	0.735	0.848	0.97	1.095	1.219
323.15 K, 101 kPa	–	–	0.487	0.539	0.634	0.722	0.82	0.919	1.018

NC1CCCCC1 + CCCO
viscosity [mPa·s], 101 kPa
Conditions	293.15 K	298.15 K	303.15 K
x1 = 0.0549	2.253	2.004	1.773
x1 = 0.102	2.29	2.036	1.803
x1 = 0.1983	2.392	2.12	1.871
x1 = 0.3117	2.512	2.213	1.946
x1 = 0.3529	2.548	2.241	1.968
x1 = 0.4031	2.578	2.266	1.985
x1 = 0.4387	2.588	2.274	1.996
x1 = 0.4926	2.589	2.271	1.999
x1 = 0.5491	2.568	2.261	1.992
x1 = 0.6111	2.534	2.229	1.964
x1 = 0.6604	2.485	2.19	1.928
x1 = 0.704	2.454	2.168	1.91
x1 = 0.7984	2.349	2.078	1.837
x1 = 0.8844	2.241	1.991	1.766
x1 = 0.9389	2.197	1.955	1.735

Reference: the CheMixHub viscosity set
